# Laboratory results reported in PubChem BioAssay AID1963975 (Molecular Pharmacology Branch, DTP, NCI, 2024).
# Test system: 624824-186-R-J2-PDC multicell spheroids, viability
# Experiment: Anticancer human tumor 624824-186-R-J2-PDC patient-derived colon adenocarcinoma cell line growth inhibition [PI3K]
# Conditions: for IC50: curve of first compound; for viability, T/C: stronger effect = lower value
# Procedure, shortened: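 High-throughput combination screen: PI3K inhibitors crossed with targeted small molecules on complex spheroids of tumor cells, HUVEC and MSCs at 37 degrees C, 5% CO2. Top concentration was at or near clinical Cmax (otherwise 10 microM), with half-log decrements.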
# [1] = second compound 0.00316 µM, first compound 0.0316 µM
# [2] = second compound 0.00316 µM, first compound 0.1 µM
# [3] = second compound 0.00316 µM, first compound 0.316 µM
# [4] = second compound 0.00316 µM, first compound 1 µM
# [5] = second compound 0.00316 µM, first compound 3.16 µM
# [6] = second compound 0.00316 µM, first compound 10 µM
# [7] = second compound 0.01 µM, first compound 0.0316 µM
# [8] = second compound 0.01 µM, first compound 0.1 µM
# [9] = second compound 0.01 µM, first compound 0.316 µM
# [10] = second compound 0.01 µM, first compound 1 µM
# [11] = second compound 0.01 µM, first compound 3.16 µM
# [12] = second compound 0.01 µM, first compound 10 µM
# [13] = second compound 0.0316 µM, first compound 0.0316 µM
# [14] = second compound 0.0316 µM, first compound 0.1 µM
# [15] = second compound 0.0316 µM, first compound 0.316 µM
# [16] = second compound 0.0316 µM, first compound 1 µM
# [17] = second compound 0.0316 µM, first compound 3.16 µM
# [18] = second compound 0.0316 µM, first compound 10 µM
# [19] = second compound 0.1 µM, first compound 0.0316 µM
# [20] = second compound 0.1 µM, first compound 0.1 µM
# [21] = second compound 0.1 µM, first compound 0.316 µM
# [22] = second compound 0.1 µM, first compound 1 µM
# [23] = second compound 0.1 µM, first compound 3.16 µM
# [24] = second compound 0.1 µM, first compound 10 µM
# [25] = second compound 0.316 µM, first compound 0.0316 µM
# [26] = second compound 0.316 µM, first compound 0.1 µM
# [27] = second compound 0.316 µM, first compound 0.316 µM
# [28] = second compound 0.316 µM, first compound 1 µM
# [29] = second compound 0.316 µM, first compound 3.16 µM
# [30] = second compound 0.316 µM, first compound 10 µM
# [31] = second compound 1 µM, first compound 0.0316 µM
# [32] = second compound 1 µM, first compound 0.1 µM
# [33] = second compound 1 µM, first compound 0.316 µM
# [34] = second compound 1 µM, first compound 1 µM
# [35] = second compound 1 µM, first compound 3.16 µM
# [36] = second compound 1 µM, first compound 10 µM
# 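Note: spheroids exposed to agents for 7 days before viability read.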
# 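Throughout, for viability, T/C: 100% = DMSO vehicle treated spheroids.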
smiles,measurement,setting,value
C=CC(=O)N1CCN(c2nc(=O)n(-c3c(C)ccnc3C(C)C)c3nc(-c4c(O)cccc4F)c(F)cc23)C(C)C1 (centres undefined) + CC(Nc1ccc2c(c1)OCCn1cc(N3C(=O)OCC3C(F)F)nc1-2)C(N)=O,IC50,second compound 0.00316 µM,> 10 µM
same,IC50,second compound 0.01 µM,> 10 µM
same,IC50,second compound 0.0316 µM,> 10 µM
same,IC50,second compound 0.1 µM,> 10 µM
same,IC50,second compound 0.316 µM,> 10 µM
same,IC50,second compound 1 µM,> 10 µM
same,"viability, T/C",[1],103%
same,"viability, T/C",[2],88.3%
same,"viability, T/C",[3],94.2%
same,"viability, T/C",[4],97.8%
same,"viability, T/C",[5],117%
same,"viability, T/C",[6],110%
same,"viability, T/C",[7],92.6%
same,"viability, T/C",[8],88%
same,"viability, T/C",[9],88.3%
same,"viability, T/C",[10],87.7%
same,"viability, T/C",[11],80.3%
same,"viability, T/C",[12],96.9%
same,"viability, T/C",[13],109%
same,"viability, T/C",[14],92.3%
same,"viability, T/C",[15],105%
same,"viability, T/C",[16],87.3%
same,"viability, T/C",[17],101%
same,"viability, T/C",[18],85.4%
same,"viability, T/C",[19],112%
same,"viability, T/C",[20],82.1%
same,"viability, T/C",[21],106%
same,"viability, T/C",[22],104%
same,"viability, T/C",[23],81.2%
same,"viability, T/C",[24],103%
same,"viability, T/C",[25],83.3%
same,"viability, T/C",[26],104%
same,"viability, T/C",[27],107%
same,"viability, T/C",[28],84.1%
same,"viability, T/C",[29],88.7%
same,"viability, T/C",[30],79.2%
same,"viability, T/C",[31],90.7%
same,"viability, T/C",[32],90%
same,"viability, T/C",[33],81.1%
same,"viability, T/C",[34],92.4%
same,"viability, T/C",[35],85.6%
same,"viability, T/C",[36],78%
CC(Cn1ccc(-c2ccc(C#N)c(Cl)c2)n1)NC(=O)c1cc(C(C)O)[nH]n1 (centres undefined) + CC(Nc1ccc2c(c1)OCCn1cc(N3C(=O)OCC3C(F)F)nc1-2)C(N)=O,IC50,second compound 0.00316 µM,> 10 µM
same,IC50,second compound 0.01 µM,> 10 µM
same,IC50,second compound 0.0316 µM,> 10 µM
same,IC50,second compound 0.1 µM,> 10 µM
same,IC50,second compound 0.316 µM,> 10 µM
same,IC50,second compound 1 µM,> 10 µM
same,"viability, T/C",[1],86.5%
same,"viability, T/C",[2],102%
same,"viability, T/C",[3],108%
same,"viability, T/C",[4],103%
same,"viability, T/C",[5],107%
same,"viability, T/C",[6],127%
same,"viability, T/C",[7],124%
same,"viability, T/C",[8],88.3%
same,"viability, T/C",[9],88.5%
same,"viability, T/C",[10],97.7%
same,"viability, T/C",[11],99.5%
same,"viability, T/C",[12],116%
same,"viability, T/C",[13],77.1%
same,"viability, T/C",[14],79.6%
same,"viability, T/C",[15],83.1%
same,"viability, T/C",[16],93.9%
same,"viability, T/C",[17],108%
same,"viability, T/C",[18],104%
same,"viability, T/C",[19],81.5%
same,"viability, T/C",[20],77.9%
same,"viability, T/C",[21],76.9%
same,"viability, T/C",[22],82.1%
same,"viability, T/C",[23],93.2%
same,"viability, T/C",[24],103%
same,"viability, T/C",[25],76.7%
same,"viability, T/C",[26],91.1%
same,"viability, T/C",[27],103%
same,"viability, T/C",[28],69.4%
same,"viability, T/C",[29],83.4%
same,"viability, T/C",[30],95.9%
same,"viability, T/C",[31],87.9%
same,"viability, T/C",[32],76%
same,"viability, T/C",[33],88.2%
same,"viability, T/C",[34],94%
same,"viability, T/C",[35],76.4%
same,"viability, T/C",[36],95.9%
